# Reference: patent US11884675B2, “Heterocyclic compounds as triggering receptor expressed on myeloid cells 2 agonists and methods of use” (AMGEN INC., priority 2020, dated 2024)
# Molecular target: hTREM2 (Homo sapiens, UniProt Q9NZC2)
# Assay: TREM2 agonist potency by Syk phosphorylation (AlphaLisa) in HEK293T-hTREM2 cells, used for Examples 306-429
# Type: cell-based
# Set-up: expressed in transfected cells; host or cells: HEK293T (HEK293T-hTREM2 cells)
# Details: HEK293 Cells
# In short: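 HEK293T cells expressing human TREM2 and DAP12, plated 20-24 h before, were exposed to compounds for 45 min at room temperature, then lysed. Phospho-Syk read by AlphaLisa; % activation from a standard curve and EC50 from a four-parameter log(agonist) fit.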
# Chain of hTREM2 (Q9NZC2 19-230): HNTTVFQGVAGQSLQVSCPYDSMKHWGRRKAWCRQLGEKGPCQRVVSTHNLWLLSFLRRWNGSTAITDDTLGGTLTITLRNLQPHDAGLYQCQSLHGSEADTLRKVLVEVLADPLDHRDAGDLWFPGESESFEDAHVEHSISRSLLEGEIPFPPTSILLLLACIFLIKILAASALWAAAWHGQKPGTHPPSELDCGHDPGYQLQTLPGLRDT
# Chain of hTREM2 (O43914 22-113 partner): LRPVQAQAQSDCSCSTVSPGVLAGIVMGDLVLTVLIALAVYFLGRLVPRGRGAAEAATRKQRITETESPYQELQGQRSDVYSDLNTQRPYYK
row,Structure (SMILES),EC50 [µM]
1,"Cc1cc([C@@H]2C[C@H](c3nc(-c4ccc(Cl)c(F)c4F)c4nc(C)c(C)nc4n3)CCO2)ccn1 [Example 396, 4-(4-chloro-2,3-difluorophenyl)-6,7-dimethyl-2-((2S,4R)-2-(2-methylpyridin-4-yl)tetrahydro-2H-pyran-4-yl)pteridine]",0.05 to 0.5
2,"Cc1cc([C@@H]2CN(c3nc(-c4cc(F)c(Cl)cc4F)c4nc(C)c(C)nc4n3)CCO2)ccn1 [Example 391, (2R)-4-[4-(4-chloro-2,5-difluoro-phenyl)-6,7-dimethyl-pteridin-2-yl]-2-(2-methyl-4-pyridyl)morpholine]",≤ 0.05
3,"Cc1cnc2c(-c3ccc(Cl)cc3F)nc([C@@H]3CCO[C@@H](c4cnn(C5CC5)c4)C3)nc2n1 [Example 350, 4-(4-chloro-2-fluorophenyl)-2-((2R,4R)-2-(1-cyclopropyl-1H-pyrazol-4-yl)tetrahydro-2H-pyran-4-yl)-7-methylpteridine]",0.5 to 3
4,"Cc1ccc2c(-c3ccc(Cl)cc3F)nc([C@H]3C[C@@H](C)O[C@@H](c4cnn(C5CC5)c4)C3)nc2n1 [Example 414, 4-(4-chloro-2-fluorophenyl)-2-((2R,4S,6R)-2-(1-cyclopropyl-1H-pyrazol-4-yl)-6-methyltetrahydro-2H-pyran-4-yl)-7-methylpyrido[2,3-d]pyrimidine]",≤ 0.05
5,"Cc1cnc2c(C34CC(C(F)(F)F)(C3)C4)nc(N3C[C@H](C)O[C@@H](c4cnn(C5CC5)c4)C3)nc2n1 (racemic) [Example 355, 2-(1-cyclopropyl-1H-pyrazol-4-yl)-6-methyl-4-(7-methyl-4-(3-(trifluoromethyl)bicyclo[1.1.1]pentan-1-yl)pteridin-2-yl)morpholine]",0.05 to 0.5
6,"Cc1cc(C2CN(c3cc4nc(C)cnc4c(-c4ccc(F)cc4F)n3)CCO2)ccn1 (stereo not drawn) [Example 313, 4-(5-(2,4-difluorophenyl)-2-methylpyrido[3,4-b]pyrazin-7-yl)-2-(2-methylpyridin-4-yl)morpholine]",≤ 0.05

# The next lines start with the values.
row,EC50 [µM],Structure (SMILES)
1,0.05 to 0.5,"Cc1cc([C@H]2C[C@@H](c3nc(-c4ccc(C(F)(F)F)nc4)c4nc(C)c(C)nc4n3)CCO2)ccn1 (racemic) [Example 309, 6,7-dimethyl-2-(2-(2-methylpyridin-4-yl)tetrahydro-2H-pyran-4-yl)-4-(6-(trifluoromethyl)pyridin-3-yl)pteridine]"
2,0.05 to 0.5,"Cc1nc2nc(N3C[C@@H](C)O[C@H](c4cnn(C5CC5)c4)C3)nc(C34CC(C(F)(F)F)(C3)C4)c2nc1C [Example 409, (2R,6R)-2-(1-cyclopropyl-1H-pyrazol-4-yl)-4-(6,7-dimethyl-4-(3-(trifluoromethyl)bicyclo[1.1.1]pentan-1-yl)pteridin-2-yl)-6-methylmorpholine]"
3,0.05 to 0.5,"Cc1cnc2c(-c3ccc(F)cc3F)nc([C@H]3C[C@@H](C)O[C@@H](c4cnn(C5CC5)c4)C3)cc2n1 [Example 417, 7-((2R,4S,6R)-2-(1-cyclopropyl-1H-pyrazol-4-yl)-6-methyltetrahydro-2H-pyran-4-yl)-5-(2,4-difluorophenyl)-2-methylpyrido[3,4-b]pyrazine]"
